US11266655B2, “Methods and compositions for treating urea cycle disorders” (Camp4 Therapeutics Corporation, priority 2019, dated 2022)
Several values for one entry are separate records, joined by “and”; a condition that tells them apart may be missing. Equal entries are not always repeated. Where two headings read alike, the source gives them in different places.

B1: GDF2 (BMP9): member of BMP family and the TGF-B superfamily (protein, UniProt Q9UK05 320-429, looked up)
Growth/differentiation factor …: SAGAGSHCQKTSLRVNFEDIGWDSWIIAPKEYEAYECKGGCFFPLADDVTPTKHAIVQTLVHLKFPTKVGKACCVPTKLSPISVLYKDDMGVPTLKYHYEGMSVAECGCR

What was measured:
[1] = system: CPS1; assay: RNA-seq of compound-treated primary human hepatocytes, CPS1 expression; assay type: cell-based; settings: primary human hepatocytes; for Relative CPS1 level vs Untreated (±Standard Deviation): triplicate (Table 19, FIG. 11); for CPS1 expression, Fold change (Log 2) vs untreated: RNA-seq
[2] = system: ASS1; assay: RNA-seq of compound-treated primary human hepatocytes, ASS1 expression; assay type: cell-based; settings: primary human hepatocytes; for Fold change (Log 2) vs untreated, ASS1 expression: RNA-seq (Table 4); for Relative ASS1 level vs Untreated (±Standard Deviation): triplicate (Table 15, FIG. 7)
[3] = system: ARG1; assay: RNA-seq of compound-treated primary human hepatocytes, ARG1 expression; assay type: cell-based; settings: for Relative ARGI level vs Untreated (±Standard Deviation) / Fold change (Log 2) vs untreated, ARG1 expression: primary human hepatocytes; for Relative ARGI level vs Untreated (±Standard Deviation): triplicate (Table 17, FIG. 9); for Fold change (Log 2) vs untreated, ARG1 expression: RNA-seq (Table 7)
[4] = system: urea cycle genes; assay: RNA-seq of primary human hepatocytes, compounds that modulate multiple urea cycle-related genes; assay type: cell-based; settings: primary human hepatocytes, RNA-seq; for Up-regulated Genes: urea cycle-related genes significantly increased (Table 10)
[5] = system: OTC; assay: JAK inhibitors at 0.3 and 3 μM in primary human hepatocytes, OTC mRNA fold change; assay type: cell-based; settings: fold change vs DMSO
Protocol: (§1) Additional small molecules that inhibit JAK1, JAK2, JAK3, or a combination of the JAK proteins were tested in primary human hepatocytes as described in Example 2. JAK inhibitors were tested in triplicate at 0.3 μM and 3 μM. The results are shown as the fold change (mRNA FC) in the mRNA levels of OTC and CPS1 genes after treatment compared to an untreated control (DMSO) and the standard deviation (SD).

[6] = system: CPS1; assay: JAK inhibitors at 0.3 and 3 μM in primary human hepatocytes, CPS1 mRNA fold change; assay type: cell-based; settings: fold change vs DMSO
Protocol: as §1

[7] = system: NAGS; assay type: cell-based, human; settings: for Relative NAGS level vs Untreated (±Standard Deviation): primary human hepatocytes, triplicate (Table 21, FIG. 13)
[8] = system: SLC25A15; assay: RNA-seq of compound-treated primary human hepatocytes, SLC25A15 expression; assay type: cell-based; settings: for Relative SLC25A15 level vs Untreated (±Standard Deviation): triplicate (Table 24, FIG. 16A-B)
[9] = 10 μM, primary human hepatocytes
[10] = 3 μM, primary human hepatocytes
[11] = Example 11, relative mRNA vs DMSO

Molecule	OTC mRNA FC ([5]; 0.3 uM)	OTC mRNA FC ([5]; 3 uM)	CPS1 mRNA FC ([6]; 0.3 uM)	CPS1 mRNA FC ([6]; 3 uM)	further results
S=C(NCc1ccc2c(c1)OCO2)N1CCN(c2ncnc3c2oc2ccccc23)CC1 [Amuvatinib]					Relative CPS1 level vs Untreated (±Standard Deviation) ([1]; 10 μM): 2.07 ± 0.42; Fold change (Log 2) vs untreated, ASS1 expression [2]: 0.69 Log 2; Relative ARGI level vs Untreated (±Standard Deviation) ([3]; 10 μM): 1.71 ± 0.19; Fold change (Log 2) vs untreated, ARG1 expression [3]: 2.5 Log 2; number of urea cycle genes whose expression was significantly up-regulated [4]: five; Up-regulated Genes [4]: CPS1, ASS1, ASL, OTC, ARG1
CCn1c(C(=O)N(C2CC2)C2CC2)cc2c3c(ncn3C)c(Nc3cc(C)n(C)n3)nc21 [BMS-911543]	1.94	2.7	1.31 and 1.03	1.65	
O=C(NCCCNc1nc(Nc2cccc(NC(=O)N3CCCC3)c2)ncc1I)c1cccs1 [BX795]					Relative CPS1 level vs Untreated (±Standard Deviation) ([1]; 3 μM): 1.75 ± 1.03; Relative ARGI level vs Untreated (±Standard Deviation) ([3]; 3 μM): 1.33 ± 0.43; Relative ARGI level vs Untreated (±Standard Deviation) ([3]; 10 μM): 1.34 ± 0.41
CCS(=O)(=O)N1CC(CC#N)(n2cc(-c3ncnc4[nH]ccc34)cn2)C1 [Baricitinib]	2.56	2.85	1.4	1.38	
CC[C@@](C)(Nc1ccnc(-c2c[nH]c3ncccc23)n1)C(=O)NCC(F)(F)F [Decernotinib]	1.01	2.18	1.07	1.28	
C[C@]12CC[C@H]3[C@@H](CCC4=CC(=O)CC[C@@]43C)[C@@H]1CC[C@@H]2C(=O)CO [Deoxycorticosterone]					CPS1 expression, Fold change (Log 2) vs untreated [1]: 3.79 Log 2; Fold change (Log 2) vs untreated, ASS1 expression [2]: 0.6 Log 2; Fold change (Log 2) vs untreated, ARG1 expression [3]: 1.37 Log 2; number of urea cycle genes whose expression was significantly up-regulated [4]: four; Up-regulated Genes [4]: CPS1, ASS1, ARG1, SLC25A15
Cc1cnc(Nc2ccc(OCCN3CCCC3)cc2)nc1Nc1cccc(S(=O)(=O)NC(C)(C)C)c1 [Fedratinib]	1.09	1.49	0.93	0.95	
COc1cc2c(Oc3ccc(NC(=O)C4(C(=O)Nc5ccc(F)cc5)CC4)cc3F)ccnc2cc1OCCCN1CCOCC1 [Foretinib]					Relative CPS1 level vs Untreated (±Standard Deviation) ([1]; 3 μM): 1.37 ± 0.30; Relative CPS1 level vs Untreated (±Standard Deviation) ([1]; 10 μM): 1.75 ± 0.30; Relative ASS1 level vs Untreated (±Standard Deviation) ([2]; 10 μM): 1.82 ± 0.11; Relative NAGS level vs Untreated (±Standard Deviation) ([7]; 10 μM): 1.45 ± 0.38; Relative ARGI level vs Untreated (±Standard Deviation) ([3]; 3 μM): 1.40 ± 0.00; Relative ARGI level vs Untreated (±Standard Deviation) ([3]; 10 μM): 1.61 ± 0.12; Relative SLC25A15 level vs Untreated (±Standard Deviation) [8, 9]: 1.97 ± 0.15
O=C(Nc1nc2cccc(-c3ccc(CN4CCS(=O)(=O)CC4)cc3)n2n1)C1CC1 [GLPG0634/Filgotinib]	1.12	2.11	1.08	1.56	
NC(=O)c1ccc(I)c([N+](=O)[O-])c1 [Iniparib]					Relative CPS1 level vs Untreated (±Standard Deviation) ([1]; 3 μM): 1.44 ± 0.01; Relative NAGS level vs Untreated (±Standard Deviation) ([7]; 0.3 μM): 1.41 ± 0.00; Relative ARGI level vs Untreated (±Standard Deviation) ([3]; 3 μM): 1.32 ± 0.15
COc1cc2ncnc(Nc3ccc(O)cc3)c2cc1OC [JANEX-1]	0.85	1.1	0.86	1.01	
Cc1cc(Nc2cc(CN3CCOCC3)c3nc(C)c(Cc4ccc(Cl)cc4F)n3n2)n[nH]1 [LY2784544/gandotinib]	1.19	1.63	1.11	1.39	
Cc1cc(Nc2cc(CN3CCOCC3)c3nc(C)c(Cc4ccc(Cl)cc4F)n3n2)n[nH]1 [LYS2784544]	1.98	3.67	1.3	1.6	
CCN(CC)CCCCNc1ncc2cc(-c3cc(OC)cc(OC)c3)c(NC(=O)NC(C)(C)C)nc2n1 [PD173074]					Relative CPS1 level vs Untreated (±Standard Deviation) ([1]; 3 μM): 1.35 ± 0.03; Relative NAGS level vs Untreated (±Standard Deviation) ([7]; 10 μM): 1.30 ± 0.31; Relative SLC25A15 level vs Untreated (±Standard Deviation) [8, 10]: 1.30 ± 0.12
CC(=O)NCC(=O)N1[C@@H]2CC[C@H]1c1ccc(Nc3ncc(C(F)(F)F)c(NC4CCC4)n3)cc12 [PF-3814735]					Relative CPS1 level vs Untreated (±Standard Deviation) ([1]; 3 μM): 2.25 ± 0.74; Relative ASS1 level vs Untreated (±Standard Deviation) ([2]; 10 μM): 1.56 ± 0.17; Relative ARGI level vs Untreated (±Standard Deviation) ([3]; 1 μM): 1.44 ± 0.02; Relative ARGI level vs Untreated (±Standard Deviation) ([3]; 3 μM): 2.45 ± 0.43; increase in ARG1 gene expression (Tables 17, 18, FIG. 9, 10) [3, 11]: greatest increase; Relative SLC25A15 level vs Untreated (±Standard Deviation) ([8]; 1 μM, primary human hepatocytes): 1.35 ± 0.11; Relative SLC25A15 level vs Untreated (±Standard Deviation) [8, 10]: 3.06 ± 0.51; Relative SLC25A15 level vs Untreated (±Standard Deviation) [8, 9]: 2.41 ± 0.14; Increase in SLC25A15 gene expression (qualitative) [8, 11]: greatest increase
CCc1cc(O)c(F)cc1-c1ccc2c(-c3nc4c([nH]3)CCN(C(=O)c3cnc(N5CCCCC5)cn3)C4)n[nH]c2c1 [PF-06263276]	1.16	1.46	1.05	1.03	
NC(=O)c1cnc2[nH]ccc2c1N[C@@H]1[C@@H]2CC3C[C@H]1C[C@@](O)(C3)C2 [Peficitinib]	2.38	3.49	1.31	2.28	
CN1C/C=C/CCOc2cccc(c2)-c2ccnc(n2)Nc2cccc(c2)C1 [SB1317/TG02]	1.05	0.64	1.05	1.03	Relative ASS1 level vs Untreated (±Standard Deviation) ([2]; 1 μM): 1.34 ± 0.12; Relative ASS1 level vs Untreated (±Standard Deviation) ([2]; 3 μM): 1.90 ± 0.19; Relative ASS1 level vs Untreated (±Standard Deviation) ([2]; 10 μM): 1.92 ± 0.18; Relative SLC25A15 level vs Untreated (±Standard Deviation) ([8]; 0.3 μM, primary human hepatocytes): 1.36 ± 0.24; Relative SLC25A15 level vs Untreated (±Standard Deviation) [8, 10]: 2.70 ± 0.34; Relative SLC25A15 level vs Untreated (±Standard Deviation) [8, 9]: 2.71 ± 0.09
O=C(Nc1ccc(-c2ccnc(Nc3ccc(N4CCOCC4)cc3)n2)cc1)C1CCCN1 (stereo not shown) [XL019]	1.09	1.02	0.91	0.81	
CCS(=O)(=O)N1CCN(c2ccc(Nc3ncc(C(N)=O)c(NC4CC4)n3)cc2)CC1 [cerdulatinib]	2.56	1.89	1.58	2.39	
N#CCC1(n2cc(-c3ncnc4[nH]ccc34)cn2)CN(C2CCN(C(=O)c3ccnc(C(F)(F)F)c3F)CC2)C1 [itacitinib]	3.56	3.41	1.84	2.17	
N#CC[C@H](C1CCCC1)n1cc(-c2ncnc3[nH]ccc23)cn1 [ruxolitinib]	2.65	4.17	1.66	1.79	
B1					CPS1 expression, Fold change (Log 2) vs untreated [1]: 3.46 Log 2; Fold change (Log 2) vs untreated, ASS1 expression [2]: 1.34 Log 2; Fold change (Log 2) vs untreated, NAGS expression [7]: 0.63 Log 2; Fold change (Log 2) vs untreated, ARG1 expression [3]: 1.79 Log 2; Fold change (Log 2) vs untreated, SLC25A15 expression ([8]; primary human hepatocytes, RNA-seq (Table 8)): 1.09 Log 2; number of urea cycle genes whose expression was significantly up-regulated [4]: five; Up-regulated Genes [4]: ASS1, CPS1, NAGS, ARG1, SLC25A15
